This is an account of results in patent US20230095021A1, “MODULATORS OF TDP-43” (Alteron Therapeutics, Inc., priority 2019, published 2023).

Test [1] deals with ApoA2 pre-mRNA. The test can be described thus: ApoA2 pre-mRNA splicing, RT-PCR. It is filed as cell-based. The following applies: MDA-MB-231 cells, endogenous gene. The method, then: (§1) Long stretches of TG repeats are found in exon 9 and intron 9 of Lamp2 gene. A shorter stretch is located in intron 10. […] RT-PCR analysis was performed to test if ALT-59 treatment affects LAMP2 alternative splicing. MDA-MB-231 cells were cultured as described above and treated with DMSO or 6 μM ALT-59. Total RNA was extracted using the RNeasy Mini Kit (Qiagen) and equal amount of RNA was reverse transcribed using the SuperScript III First-Strand Synthesis System (Invitrogen). PCR reactions were performed using forward primer located on exon 1 and a reverse primer located on exon 11. PCR samples were resolved in a 1.2% agarose gel and stained with ethidium bromide.
(§2) It has been reported that TDP-43 causes CFTR exon 9 skipping, ApoA2 exon 3 skipping, and POLDIP3 exon 3 inclusion. Additional experiments were performed to further confirm that TDP-43 is the target of ALT-59. RT-PCR analysis was performed as described above using the following primers for the three genes. PCR samples were analyzed by polyacrylamide gel electrophoresis and stained with ethidium bromide.

For test [2], the target named is T1, TDP43-His (Homo sapiens, UniProt Q13148).
T1 construct: made in house; host or cells: E. coli Rosetta (DE3), vector pRETb/TDP43-His; protein not purified, read in whole cell lysate
T1 sequence (Q13148 whole entry): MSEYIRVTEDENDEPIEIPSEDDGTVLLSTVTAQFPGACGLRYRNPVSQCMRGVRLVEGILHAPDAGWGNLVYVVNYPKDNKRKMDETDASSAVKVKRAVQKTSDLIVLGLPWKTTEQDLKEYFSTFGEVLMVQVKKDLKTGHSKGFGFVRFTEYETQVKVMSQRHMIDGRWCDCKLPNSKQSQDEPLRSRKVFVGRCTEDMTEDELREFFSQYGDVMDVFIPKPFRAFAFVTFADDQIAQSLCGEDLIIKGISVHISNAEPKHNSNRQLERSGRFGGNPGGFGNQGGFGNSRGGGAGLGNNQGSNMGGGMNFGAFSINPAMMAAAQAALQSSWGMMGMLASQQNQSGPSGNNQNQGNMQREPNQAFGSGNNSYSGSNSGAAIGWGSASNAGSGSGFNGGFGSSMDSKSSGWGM
The test can be described thus: Expression of histidine-tagged TDP-43 in E. coli whole cell lysates. The following applies: 60 μM ALT-59 with 2 μg/ml PMBN, 0.5 mM IPTG, Rosetta (DE3) cells, Coomassie stain. In kind it is cell-based. The method, then: Rosetta (DE3) cells were transformed with pRETb/TDP43-His according manufacture's instruction. After the culture from a single colony reached O.D 0.6 with shaking at 37° C. for 5 hours, it was split into six equal cultures and treated as indicated in FIG. 3. (Lane 1) un-induced blank; (Lane 2) 0.5 mM IPTG, 60 μM DMSO; (Lane 3) 0.5 mM IPTG, 60 μM ALT-59; (Lane 4) 0.5 mM IPTG, 2 μg/ml PMBN; (Lane 5) 0.5 mM IPTG, 2 μg/ml PMBN, 30 μM ALT-59; (Lane 6) 0.5 mM IPTG, 2 μg/ml PMBN, 60 μM ALT-59. Cells were cultured overnight at 25° C. on a shaker and then collected, sonicated in protein sample buffer and boiled before loading on a 10% SDS-PAGE gel. Protein were visualized by Coomassie Brilliant Blue stain.

Test [3] relates to LAMP2 pre-mRNA. As to the kind of experiment: LAMP2 pre-mRNA alternative splicing, RT-PCR. In kind it is cell-based. The note with it: MDA-MB-231 cells, 6 μM ALT-59. The protocol:
as §1

The test system of test [4] is BACE1. The test can be described thus: BACE1 expression, Western blot in T98G cells. It is filed as cell-based. The note with it: 2 days. The method, then:
(§3) U-87 MG and T98G cells were maintained at 37° C. in a CO2 incubator in Dulbecco's Modified Eagle's Medium (DMEM) supplemented with 10% fetal bovine serum (FBS) and 1% of penicillin/streptomycin (Invitrogen). Cells were treated with DMSO, 3 μM, or 6 μM ALT-59 for 2 days and subjected to Western blotting analysis using the indicated antibodies. Protein bands were quantified using the ImageJ software.
In general terms: A western blot detects proteins with antibodies after separation by electrophoresis.

Test [5] relates to CFTR. As to the kind of experiment: CFTR protein levels, Western blot in U-87 MG cells. In kind it is cell-based. The method, then:
Additional experiments were performed to determine how ALT-59 treatment affects CFTR protein levels. U-87 MG cells were maintained at 37° C. in a CO2 incubator in Dulbecco's Modified Eagle's Medium (DMEM) supplemented with 10% fetal bovine serum (FBS) and 1% of penicillin/streptomycin (Invitrogen), and were treated with DMSO, 3 μM, or 6 μM ALT-59. Cells were lysed using RIPA buffer (25 mM Tris, pH 7.4, 150 mM NaCl, 0.1% SDS, 0.5% sodium deoxycholate, 1% Triton X-100, Complete protease inhibitor cocktail). Western blotting was performed using anti-CFTR (Novus Biologicals) and anti-beta-actin (Sigma-Aldrich) antibodies. Images were obtained using Odyssey imager and quantified using the Odyssey software (LI-COR).

In test [6] the test system is Tau. The test can be described thus: Tau expression, Western blot in U-87 MG cells. The following applies: 2 days. It is filed as cell-based. The protocol:
as §3

Test [7] has as its system POLDIP3 exon 3. As to the kind of experiment: POLDIP3 exon 3 splicing, RT-PCR. The following applies: MDA-MB-231 cells. It is filed as cell-based. The protocol: as §1, §2
The target of test [8] is T2, His-Sumo-TDP43 (Homo sapiens, UniProt Q13148).
T2 construct: made in house; host or cells: E. coli Rosetta (DE3), vector pSumo/TDP43, Ni-NTA purified
T2 sequence (Q13148 whole entry): as above
The test can be described thus: Binding of His-Sumo-TDP43 to TG12-biotin, streptavidin bead pull-down and Western blot. The method, then:
Additional experiments were performed to confirm the direct binding of ALT-59 to TDP-43. One microgram of purified His-Sumo-TDP43 was incubated with 1 μg TG12-biotin ([…]-biotin (SEQ ID NO: 1)) in binding buffer containing 20 mM HEPES, pH 7.5, 0.3% CHAPS, 150 mM NaCl, (Sigma-Aldrich), and protease inhibitor cocktail (Roche) for 4 hours on ice in the presence of carrier (50% Cremophor EL, 50% absolute ethanol) or 30 μM ALT-59 dissolved in carrier. Streptavidin magnetic beads (20 μl settled beads, GE Healthcare Life Sciences) were added to pull down the DNA-protein complex by rotating at 4° C. for 2 hours. After being washed 5 times with binding buffer, samples were boiled in protein sample buffer. In another experiment, DNA-protein complex bound to Streptavidin magnetic beads were washed and split into three parts, two of which were incubated with either carrier or ALT-59 for 4 hours with rotation at 4° C. to elute TDP-43 from TG12-biotin-streptavidin. The third part and elutes were mixed with protein sample buffer and boiled. Protein samples from the above experiments were loaded onto 4-20% Tris-glycine gel (Invitrogen) for fractionation. Western blotting was performed using anti-TDP-43 antibody (Proteintech Group).

`CN(C)c1ccc(C2Nc3ccc4ccccc4c3C3=C2C(=O)CC(C)(C)C3)cc1Br` (stereo not shown) [ALT-59, 5-(3-bromo-4-(dimethylamino)phenyl)-2,2-dimethyl-2,3,5,6-tetrahydrobenzo[a]phenanthridin-4(1H)-one]: in test [1], the ApoA2 splicing result is recorded as “blocking ApoA2 splicing”. Moreover, the TDP43-His protein expression result in test [2] is given as “increased protein expression”. Moreover, in test [3], the “level of LAMP2a mRNA” value was “reduces the level of LAMP2a mRNA” and the “level of LAMP2c mRNA” value is listed as “increases the level of LAMP2c mRNA”. In addition, the “reduction of BACE1 expression” value in test [4] (3 μM) is reported as 31%. The “reduction of BACE1 expression” value in test [4] (6 μM) is 53%. In test [5] (3 μM), the “increase of CFTR300 level” value came out at 10 fold and the “level of CFTR160” value is “did not affect”. For the same compound, in test [5] (6 μM), the “increase of CFTR160 level” value turned out to be 30%, the “increase of CFTR240 level” value was 3 fold and the “increase of CFTR300 level” value is recorded as 18 fold. Further, the “reduction of Tau expression” value in test [6] (3 μM) is 52%. In addition, in test [6] (6 μM), the “reduction of Tau expression” value is 38%. The “splicing of POLDIP3 exon 3” value in test [7] is reported as “remain unchanged”. Also, the “binding of TDP-43 to TG12” value in test [8] (30 μM ALT-59 in carrier, 4 hours on ice) is recorded as “can block the binding of TDP-43 to TG12”. Besides, the “elution of TDP-43 from the TDP43-TG12 complex” value in test [8] (preformed DNA-protein complex on streptavidin beads, 4 hours at 4° C.) is reported as “capable of displacing TG12 from the TDP43-TG12 complex”.
